Data reported in article PMC4230943, “Mimicking Hypoxia to Treat Anemia: HIF-Stabilizer BAY 85-3934 (Molidustat) Stimulates Erythropoietin Production without Hypertensive Effects” (PLoS ONE, 2014).

How the values were obtained:
male Wistar rats [1] = assay: Subtotal nephrectomy (remnant kidney) model; format: in vivo, rat
Experimental: In the chronic disease models of subtotal nephrectomy and inflammation, the sodium salt of BAY 85-3934 was used. For administration in drinking water, BAY 85-3934 sodium and enalapril were prepared as 100 mM sodium bicarbonate saline solutions (adjusted to pH 7) at final concentrations of 80 ppm and 30 ppm, respectively. Sham and vehicle control animals received saline only. Unless otherwise stated, chemicals and reagents were purchased from Sigma-Aldrich.
Subtotal nephrectomy was conducted in adult male Wistar rats. Body weight, blood pressure, hematocrit, and blood cell counts were determined at baseline and thereafter at weekly intervals. At baseline, rats were randomly distributed into two groups: those that underwent subtotal nephrectomy and those that underwent a sham procedure without reduction of renal mass. Surgery was performed in deeply anesthetized (2% isoflurane in air) animals. Kidneys were accessed via a dorsolateral incision of the body wall of about 2 cm in length. The right kidney was removed after ligature of the renal peduncle, and subsequently the upper and lower pole of the left kidney were removed, followed by careful hemostasis. Approximately one third of the initial kidney mass remained (removed tissue was weighed to check this was achieved). In the sham-treated animals, both kidneys were exposed before closure of the wound. Three weeks after surgery, animals were allocated to each group in equal proportions with respect to systolic blood pressure and hematocrit values. For 5 weeks, animals were treated twice weekly with rhEPO (100 IU/kg), or once daily with […] (2.5 mg/kg or 5.0 mg/kg) or vehicle. In experiments using enalapril or a combination of BAY 85-3934 sodium and enalapril, study drugs were administered with drinking water. BAY 85-3934 sodium and enalapril were administered in drinking water at concentrations of 80 ppm and 30 ppm, respectively. This was equivalent to approximately 2 mg/kg/day for enalapril and 5 mg/kg/day for BAY 85-3934. Systolic blood pressure and heart rate were determined using the tail-cuff method (a semi-automatic, non-invasive blood pressure monitor; TSE Systems), with three repeated measurements per animal.
(§1) EPO was measured in plasma samples taken from rodents using a commercial ELISA kit (R&D Systems), according to the manufacturer’s instructions. Relative plasma EPO levels were given in picograms per milliliter. In cynomolgus monkeys, EPO was measured using a combination anti-human EPO ELISAs (R&D Systems and Roche Diagnostics), with human EPO as a standard. Values were given as units per liter. For determination of plasma prorenin from rats, a commercial ELISA (Oxford Biomedical Research) was used according to the manufacturer’s instructions. Hemoglobin in rodent blood samples was determined on a Cell-Dyn 3700 apparatus (Abbott Diagnostics). BAY 85-3934 plasma concentrations were determined after protein precipitation with acetonitrile/ammonium acetate using an internal standard, followed by separation using HPLC/mass spectrometry.
As well as anemia and inflammation, CKD is often accompanied by hypertension, upon which treatment with rhEPO may have an unfavorable impact. The effects of BAY 85-3934 were compared with rhEPO in the remnant kidney (subtotal nephrectomy) model in rats.

male Wistar rats [2] = assay: Comparison of oral BAY 85-3934 with rhEPO on erythropoiesis; format: in vivo, rat; details: BAY 85-3934 2.5 mg/kg once daily oral; rhEPO 25, 50, 100 IU/kg twice weekly s.c.; p<0.001 at day 30
Experimental: Male Wistar rats (240–340 g in body weight) were housed with five animals per cage for at least 1 week before experimentation. Blood samples from rats were collected under anesthesia (2% isoflurane in air) by puncturing the retro-orbital vein plexus with a glass capillary. In a repeat-dose, 26-day experiment, animals were administered vehicle or BAY 85-3934 at doses of 0.5 mg/kg, 1.25 mg/kg, 2.5 mg/kg, and 5 mg/kg. PCV was determined at baseline and at weekly intervals after centrifugation in a hematocrit capillary tube (Brand) for 10 min at full speed in a Haemofuge centrifuge (Heraeus). The number of reticulocytes in 5 µl blood was counted after staining with thiazol orange (Becton Dickinson) according to the manufacturer’s instructions by FACS analysis on a BD FACSCalibur system (Becton Dickinson). The efficacy of BAY 85-3934 (2.5 mg/kg, once-daily, oral) was also compared with that of rhEPO (25 IU/kg, 50 IU/kg, and 100 IU/kg, twice-weekly, s.c. injection). […] The efficacy of oral treatment with BAY 85-3934 was compared with that of standard rhEPO treatment in male Wistar rats.

cynomolgus monkeys = assay: Comparison of BAY 85-3934 with rhEPO (single dose and 14-day repeat dose); format: in vivo, cynomolgus monkey
Experimental: Male and female cynomolgus monkeys (2.8–5.6 kg in body weight) were used, which were housed two per cage. Blood samples from conscious cynomolgus monkeys were taken by puncturing a superficial vein. In a 5-day, repeat-dose study of plasma EPO response, BAY 85-3934 was administered at doses of 0.5 mg/kg and 1.5 mg/kg at 0 h, 24 h, 48 h, 72 h, and 96 h. Blood samples were taken at 7 h, 31 h, 55 h, 79 h, 103 h, and 168 h. Erythropoietic parameters were also evaluated after a 2-week treatment period with s.c. administration of rhEPO (100 IU/kg twice weekly at days 1, 4, 8, and 11) and BAY 85-3934 (1.5 mg/kg) once daily.
as §1
In a further study, the efficacy of oral treatment with BAY 85-3934 was evaluated in comparison with rhEPO. Animals were administered a single dose of rhEPO (100 IU/kg) by s.c. injection or BAY 85-3934 (1.5 mg/kg, oral). After administration of rhEPO, plasma concentrations of rhEPO were more than 8-fold higher than the endogenous EPO levels induced by treatment with BAY 85-3934 (Fig. 3B). The area under the curve (AUC) of rhEPO was more than 6-fold higher than the AUC of endogenous EPO. […] Mean reticulocyte counts were 2-fold higher after treatment with rhEPO than after treatment with BAY 85-3934, but returned to baseline values 8 days after treatment cessation.

[3] = drinking water, 5 weeks: BAY 85-3934 sodium 80 ppm, enalapril 30 ppm
[4] = single dose rhEPO 100 IU/kg s.c. vs BAY 85-3934 1.5 mg/kg oral

Molecule | mean PCV (male Wistar rats [1]; [3]) | mean systolic blood pressure compared with control (male Wistar rats [1]; [3]) | plasma prorenin levels (male Wistar rats [1]; [3]) | hematocrit compared with the control group (male Wistar rats [2]) | systolic blood pressure compared with untreated controls (male Wistar rats [1]; 5 weeks, tail-cuff) | mean PCV (male Wistar rats [1]; BAY 85-3934 2.5 and 5 mg/kg once daily, rhEPO 100 IU/kg twice weekly) | cardiac hypertrophy (male Wistar rats [1]; data not shown) | mean reticulocyte counts relative to BAY 85-3934 treatment (cynomolgus monkeys; 14-day repeat dose) | time after treatment cessation at which reticulocyte counts returned to baseline (cynomolgus monkeys; 14-day repeat dose) | mean gains of hemoglobin and red blood cells, both treatments compared (cynomolgus monkeys; 14 days, rhEPO 100 IU/kg twice weekly s.c., BAY 85-3934 1.5 mg/kg once daily) | AUC of rhEPO relative to AUC of endogenous EPO (cynomolgus monkeys; [4]) | plasma rhEPO concentration relative to endogenous EPO induced by BAY 85-3934 (cynomolgus monkeys; [4])
[Na+].[O-]c1c(-n2ccnn2)cnn1-c1cc(N2CCOCC2)ncn1 [BAY 85-3934 sodium] | increasing | significantly reduced |  |  |  |  |  |  |  |  |  | 
CCOC(=O)[C@H](CCc1ccccc1)N[C@@H](C)C(=O)N1CCC[C@H]1C(=O)O [enalapril, reference compound] | remained unchanged | significant reduction | reversion of plasma prorenin levels to normal values |  |  |  |  |  |  |  |  | 
rhEPO: Human recombinant EPO (Ortho Biotech), s.c. injection |  |  |  | significant increase | no difference | significantly increased | manifested | 2 fold | 8 days | almost completely congruent over time | more than 6 fold | more than 8 fold
